ChEMBL document CHEMBL3596165, “Synthesis, structure elucidation and identification of antiproliferative activities of a novel class of thiophene bioisosteres bearing the privileged 7,8-dihydroimidazo[2,1-c][1,2,4]triazin-4(6H)-one scaffold” (Bioorg Med Chem, 2015)

What was measured:
[1] = Antiproliferative activity against African green monkey Vero cells at 50 ug/ml after 48 hrs by BrdUrd incorporation assay; format: cell-based; settings: chlorocebus sabaeus, read-out: GI
[2] = tested on: Vero; assay: Antiproliferative activity against African green monkey Vero cells after 48 hrs by BrdUrd incorporation assay; format: cell-based; settings: Chlorocebus sabaeus
[3] = tested on: TOV112D; assay: Antiproliferative activity against human TOV112D cells after 48 hrs by BrdUrd incorporation assay; format: functional, cell-based
[4] = tested on: HeLa; assay: Antiproliferative activity against human HeLa cells after 72 hrs by BrdUrd incorporation assay; format: functional, cell-based
[5] = tested on: HeLa; assay: Antiproliferative activity against human HeLa cells after 48 hrs by BrdUrd incorporation assay; format: functional, cell-based
[6] = tested on: HeLa; assay: Antiproliferative activity against human HeLa cells at 50 ug/ml after 72 hrs by BrdUrd incorporation assay; format: functional; settings: read-out: GI
[7] = tested on: T47D; assay: Antiproliferative activity against human T47D cells after 72 hrs by BrdUrd incorporation assay; format: functional, cell-based
[8] = tested on: HeLa; assay: Antiproliferative activity against human HeLa cells after 24 hrs by BrdUrd incorporation assay; format: functional, cell-based
[9] = tested on: A549; assay: Antiproliferative activity against human A549 cells after 48 hrs by BrdUrd incorporation assay; format: functional, cell-based; settings: A549, 48 h
[10] = tested on: TOV112D; assay: Antiproliferative activity against human TOV112D cells at 50 ug/ml after 24 hrs by BrdUrd incorporation assay; format: functional; settings: read-out: GI
[11] = tested on: TOV112D; assay: Antiproliferative activity against human TOV112D cells at 50 ug/ml after 48 hrs by BrdUrd incorporation assay; format: functional; settings: read-out: GI
[12] = tested on: A549; assay: Antiproliferative activity against human A549 cells after 72 hrs by BrdUrd incorporation assay; format: functional, cell-based; settings: A549, 72 h
[13] = tested on: TOV112D; assay: Antiproliferative activity against human TOV112D cells after 24 hrs by BrdUrd incorporation assay; format: functional, cell-based
[14] = tested on: TOV112D; assay: Antiproliferative activity against human TOV112D cells after 72 hrs by BrdUrd incorporation assay; format: functional, cell-based
[15] = tested on: A549; assay: Antiproliferative activity against human A549 cells at 50 ug/ml after 72 hrs by BrdUrd incorporation assay; format: functional; settings: A549, 72 h, read-out: GI
[16] = tested on: Vero; assay: Antiproliferative activity against African green monkey Vero cells at 50 ug/ml after 24 hrs by BrdUrd incorporation assay; format: cell-based; settings: chlorocebus sabaeus
[17] = tested on: Vero; assay: Antiproliferative activity against African green monkey Vero cells after 24 hrs by BrdUrd incorporation assay; format: cell-based; settings: chlorocebus sabaeus
[18] = tested on: HeLa; assay: Antiproliferative activity against human HeLa cells at 50 ug/ml after 24 hrs by BrdUrd incorporation assay; format: functional; settings: read-out: GI
[19] = tested on: T47D; assay: Antiproliferative activity against human T47D cells after 48 hrs by BrdUrd incorporation assay; format: functional, cell-based
[20] = tested on: A549; assay: Antiproliferative activity against human A549 cells at 50 ug/ml after 48 hrs by BrdUrd incorporation assay; format: functional; settings: A549, 48 h, read-out: GI
[21] = tested on: T47D; assay: Antiproliferative activity against human T47D cells at 50 ug/ml after 72 hrs by BrdUrd incorporation assay; format: functional; settings: read-out: GI
[22] = tested on: T47D; assay: Antiproliferative activity against human T47D cells at 50 ug/ml after 48 hrs by BrdUrd incorporation assay; format: functional; settings: read-out: GI
[23] = tested on: A549; assay: Antiproliferative activity against human A549 cells after 24 hrs by BrdUrd incorporation assay; format: functional, cell-based; settings: A549, 24 h
[24] = Antiproliferative activity against African green monkey Vero cells at 50 ug/ml after 72 hrs by BrdUrd incorporation assay; format: cell-based; settings: chlorocebus sabaeus, read-out: GI
[25] = tested on: A549; assay: Antiproliferative activity against human A549 cells at 50 ug/ml after 24 hrs by BrdUrd incorporation assay; format: functional; settings: A549, 24 h, read-out: GI
[26] = tested on: T47D; assay: Antiproliferative activity against human T47D cells after 24 hrs by BrdUrd incorporation assay; format: functional, cell-based
[27] = tested on: T47D; assay: Antiproliferative activity against human T47D cells at 50 ug/ml after 24 hrs by BrdUrd incorporation assay; format: functional; settings: read-out: GI
[28] = tested on: TOV112D; assay: Antiproliferative activity against human TOV112D cells at 50 ug/ml after 72 hrs by BrdUrd incorporation assay; format: functional; settings: read-out: GI
[29] = tested on: Vero; assay: Antiproliferative activity against African green monkey Vero cells after 72 hrs by BrdUrd incorporation assay; format: cell-based; settings: Chlorocebus sabaeus
[30] = tested on: HeLa; assay: Antiproliferative activity against human HeLa cells at 50 ug/ml after 48 hrs by BrdUrd incorporation assay; format: functional; settings: read-out: GI

Compound | inhibition at 48 h, 50 ug/ml [1] [%] | IC50 [2] [µM] | IC50 [3] [µM] | IC50 [4] [µM] | IC50 [5] [µM] | inhibition of growth at 50 µg/mL [6] [%] | IC50 [7] [µM] | IC50 [8] [µM] | IC50 [9] [µM] | inhibition of growth at 50 µg/mL [10] [%] | inhibition of growth at 50 µg/mL [11] [%] | IC50 [12] [µM] | IC50 [13] [µM] | IC50 [14] [µM] | inhibition of growth at 50 µg/mL [15] [%] | growth inhibition (GI) [16] [%] | IC50 [17] [µM] | inhibition of growth at 50 µg/mL [18] [%] | IC50 [19] [µM] | inhibition of growth at 50 µg/mL [20] [%] | other results
COc1ccccc1N1CCn2c1nnc(-c1cccs1)c2=O | 75 | 100 | 100 | 100 | 130 | 80 | 80 | 150 | 100 | 75 | 80 | 80 | 100 | 80 | 90 | 50 | 150 | 50 | 90 | 80 | inhibition of growth at 50 µg/mL [21]: 95%; inhibition of growth at 50 µg/mL [22]: 90%; IC50 [23]: 110 µM; inhibition at 72 h, 50 ug/ml [24]: 90%; inhibition of growth at 50 µg/mL [25]: 70%; IC50 [26]: 100 µM; inhibition of growth at 50 µg/mL [27]: 80%; inhibition of growth at 50 µg/mL [28]: 90%; IC50 [29]: 90 µM; inhibition of growth at 50 µg/mL [30]: 60%
O=c1c(-c2cccs2)nnc2n1CCN2c1ccccc1Cl | 60 | 130 | 80 | 80 | 90 | 90 | 80 | 150 | 80 | 80 | 95 | 80 | 90 | 80 | 95 | 50 | 150 | 50 | 80 | 95 | inhibition of growth at 50 µg/mL [21]: 100%; inhibition of growth at 50 µg/mL [22]: 100%; IC50 [23]: 100 µM; inhibition at 72 h, 50 ug/ml [24]: 75%; inhibition of growth at 50 µg/mL [25]: 75%; IC50 [26]: 80 µM; inhibition of growth at 50 µg/mL [27]: 95%; inhibition of growth at 50 µg/mL [28]: 100%; IC50 [29]: 100 µM; inhibition of growth at 50 µg/mL [30]: 80%
